Counter-ions that a name gives are not always drawn.
Experiments:
[1] = cataleptic effects (Tedeschi et al.); assay type: in vivo, rat; details: in vivo, rat, fumarate salt, expressed as free base
Excerpt: The procedure used for determing cataleptic effects of the fumarate salts was based on that of Tedeschi et al., Arch. Int. Pharmacodyn.

[2] = system: Metoclopramide-Induced Catalepsy; test: Effects on Metoclopramide-Induced Catalepsy; assay type: in vivo, rat; details: Metoclopramide 40 mg/kg IP
Procedure: (§1) (+)-4-Amino-N-(1-cyclohexyl-3-pyrrolidinyl)-N-methylbenzamide is useful in reducing the cataleptic side effects of known therapeutically effective drugs such as chlorpromazine [2-chloro-10-(3-dimethylaminopropyl)phenothiazine] and metoclopramide (N-diethylaminoethyl 2-methoxy-4-amino-5-chlorophenylcarboxamide). The effectiveness is shown in Tables IV and V. In each test the rat was administered a 100% effective cataleptic dose of the test drug followed one hour later by an effective dose of (+)-4-amino-N-(1-cyclohexyl-3-pyrrolidinyl)-N-methylbenzamide.

[3] = system: Chlorpromazine-Induced Catalepsy; test: Effects on Chlorpromazine-Induced Catalepsy; assay type: in vivo, rat; details: then (+)-isomer 25 mg/kg IP after one hour
Procedure: as §1

[4] = system: mouse; test: acute toxicity (LD50), mouse; assay type: in vivo; details: fumarate salt, expressed as free base
Procedure: (§2) The acute toxicities of the ±-racemate, the (+)-isomer and the (-)-isomer were conducted with the fumarate salts and probit analysis (Finney, D. J., Statistical Methods in Biological Assay, Hafner Pub. Co., N.Y., 2nd. Ed., 1964) was employed for the statistical treatment of the mortality data.

[5] = system: rat; test: acute toxicity (LD50), rat; assay type: in vivo; details: fumarate salt, expressed as free base
Procedure: as §2

CN(C(=O)c1ccc(N)cc1)C1CCN(C2CCCCC2)C1 (single isomer, unassigned; (+)) [(+)-isomer, (+)-4-Amino-N-(1-cyclohexyl-3-pyrrolidinyl)-N-methyl benzamide Fumarate]
NOAEL ([1]; IP): 100 mg/kg
NOAEL ([1]; PO): 200 mg/kg
Percent of Rats Cataleptic ([2]; then (+)-isomer 12.5 mg/kg IP after one hour, 0.5 h after initial treatment): 100%
Percent of Rats Cataleptic ([2]; then (+)-isomer 12.5 mg/kg IP after one hour, 1.0 h after initial treatment): 100%
Percent of Rats Cataleptic ([2]; then (+)-isomer 12.5 mg/kg IP after one hour, 1.5 h after initial treatment): 100%
Percent of Rats Cataleptic ([2]; then (+)-isomer 12.5 mg/kg IP after one hour, 2.0 h after initial treatment): 88%
Percent of Rats Cataleptic ([2]; then (+)-isomer 12.5 mg/kg IP after one hour, 3.0 h after initial treatment): 88%
Percent of Rats Cataleptic ([2]; then (+)-isomer 12.5 mg/kg IP after one hour, 4.0 h after initial treatment): 100%
Percent of Rats Cataleptic ([2]; then (+)-isomer 12.5 mg/kg IP after one hour, 5.0 h after initial treatment): 100%
Percent of Rats Cataleptic ([2]; then (+)-isomer 12.5 mg/kg IP after one hour, 6.0 h after initial treatment): 100%
Percent of Rats Cataleptic ([2]; then (+)-isomer 12.5 mg/kg IP after one hour, 7.0 h after initial treatment): 100%
Percent of Rats Cataleptic ([2]; then (+)-isomer 25 mg/kg IP after one hour, 0.5 h after initial treatment): 100%
Percent of Rats Cataleptic ([2]; then (+)-isomer 25 mg/kg IP after one hour, 1.0 h after initial treatment): 100%
Percent of Rats Cataleptic ([2]; then (+)-isomer 25 mg/kg IP after one hour, 1.5 h after initial treatment): 100%
Percent of Rats Cataleptic ([2]; then (+)-isomer 25 mg/kg IP after one hour, 2.0 h after initial treatment): 75%
Percent of Rats Cataleptic ([2]; then (+)-isomer 25 mg/kg IP after one hour, 3.0 h after initial treatment): 38%
Percent of Rats Cataleptic ([2]; then (+)-isomer 25 mg/kg IP after one hour, 4.0 h after initial treatment): 75%
Percent of Rats Cataleptic ([2]; then (+)-isomer 25 mg/kg IP after one hour, 5.0 h after initial treatment): 88%
Percent of Rats Cataleptic ([2]; then (+)-isomer 25 mg/kg IP after one hour, 6.0 h after initial treatment): 88%
Percent of Rats Cataleptic ([2]; then (+)-isomer 40 mg/kg IP after one hour, 0.5 h after initial treatment): 88%
Percent of Rats Cataleptic ([2]; then (+)-isomer 40 mg/kg IP after one hour, 1.0 h after initial treatment): 88%
Percent of Rats Cataleptic ([2]; then (+)-isomer 40 mg/kg IP after one hour, 1.5 h after initial treatment): 25%
Percent of Rats Cataleptic ([2]; then (+)-isomer 40 mg/kg IP after one hour, 2.0 h after initial treatment): 13%
Percent of Rats Cataleptic ([2]; then (+)-isomer 40 mg/kg IP after one hour, 3.0 h after initial treatment): 38%
Percent of Rats Cataleptic ([2]; then (+)-isomer 40 mg/kg IP after one hour, 4.0 h after initial treatment): 38%
Percent of Rats Cataleptic ([2]; then (+)-isomer 40 mg/kg IP after one hour, 5.0 h after initial treatment): 88%
Percent of Rats Cataleptic ([2]; then (+)-isomer 40 mg/kg IP after one hour, 6.0 h after initial treatment): 88%
Percent of Rats Cataleptic ([2]; then (+)-isomer 40 mg/kg IP after one hour, 7.0 h after initial treatment): 88%
Percent of Rats Cataleptic ([2]; then (+)-isomer 50 mg/kg IP after one hour, 0.5 h after initial treatment): 100%
Percent of Rats Cataleptic ([2]; then (+)-isomer 50 mg/kg IP after one hour, 1.0 h after initial treatment): 100%
Percent of Rats Cataleptic ([2]; then (+)-isomer 50 mg/kg IP after one hour, 1.5 h after initial treatment): 13%
Percent of Rats Cataleptic ([2]; then (+)-isomer 50 mg/kg IP after one hour, 2.0 h after initial treatment): 13%
Percent of Rats Cataleptic ([2]; then (+)-isomer 50 mg/kg IP after one hour, 3.0 h after initial treatment): 25%
Percent of Rats Cataleptic ([2]; then (+)-isomer 50 mg/kg IP after one hour, 4.0 h after initial treatment): 25%
Percent of Rats Cataleptic ([2]; then (+)-isomer 50 mg/kg IP after one hour, 5.0 h after initial treatment): 75%
Percent of Rats Cataleptic ([2]; then (+)-isomer 50 mg/kg IP after one hour, 6.0 h after initial treatment): 88%
Percent of Rats Cataleptic ([2]; then (+)-isomer 50 mg/kg IP after one hour, 7.0 h after initial treatment): 75%
Percent of Rats Cataleptic ([3]; Chlorpromazine 4 mg/kg IP, 0.5 h after initial treatment): 100%
Percent of Rats Cataleptic ([3]; Chlorpromazine 4 mg/kg IP, 1.0 h after initial treatment): 100%
Percent of Rats Cataleptic ([3]; Chlorpromazine 4 mg/kg IP, 1.5 h after initial treatment): 50%
Percent of Rats Cataleptic ([3]; Chlorpromazine 4 mg/kg IP, 2.0 h after initial treatment): 33%
Percent of Rats Cataleptic ([3]; Chlorpromazine 4 mg/kg IP, 3.0 h after initial treatment): 33%
Percent of Rats Cataleptic ([3]; Chlorpromazine 4 mg/kg IP, 4.0 h after initial treatment): 50%
Percent of Rats Cataleptic ([3]; Chlorpromazine 4 mg/kg IP, 5.0 h after initial treatment): 100%
Percent of Rats Cataleptic ([3]; Chlorpromazine 4 mg/kg IP, 6.0 h after initial treatment): 67%
Percent of Rats Cataleptic ([3]; saline 10 ml/kg IP, 0.5 h after initial treatment): 0%
Percent of Rats Cataleptic ([3]; saline 10 ml/kg IP, 1.0 h after initial treatment): 0%
Percent of Rats Cataleptic ([3]; saline 10 ml/kg IP, 1.5 h after initial treatment): 0%
Percent of Rats Cataleptic ([3]; saline 10 ml/kg IP, 2.0 h after initial treatment): 0%
Percent of Rats Cataleptic ([3]; saline 10 ml/kg IP, 3.0 h after initial treatment): 0%
Percent of Rats Cataleptic ([3]; saline 10 ml/kg IP, 4.0 h after initial treatment): 17%
Percent of Rats Cataleptic ([3]; saline 10 ml/kg IP, 5.0 h after initial treatment): 17%
Percent of Rats Cataleptic ([3]; saline 10 ml/kg IP, 6.0 h after initial treatment): 0%
LD50 (95% Confidence Limits) ([4]; I.P.): 126 (115-139) mg/kg
LD50 (95% Confidence Limits) ([4]; P.O.): 267 (233-313) mg/kg
LD50 (95% Confidence Limits) ([5]; I.P.): 147 (134-222) mg/kg
LD50 (95% Confidence Limits) ([5]; P.O.): 499 (322-593) mg/kg
